Experimental data published in PubChem BioAssay (NCI).
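Briefly, cells in 96-well plates were exposed to five compound concentrations for 48 h, and endpoints were estimated by linear interpolation. At the GI50, growth is halved. TGI is the concentration that stops growth completely.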

Columns and labels:
Assay in all cases: growth of human tumour cells (NCI), 48 h
NCI-H522 lung = system: NCI-H522 lung
SW-620 colon = system: SW-620 colon
OVCAR-8 ovarian = system: OVCAR-8 ovarian
U251 CNS = system: U251 CNS
SN12C renal = system: SN12C renal
SNB-19 CNS = system: SNB-19 CNS
RXF 393 renal = system: RXF 393 renal
SR leukemia = system: SR leukemia
T-47D breast = system: T-47D breast
SK-MEL-2 melanoma = system: SK-MEL-2 melanoma

| SMILES | TGI (NCI-H522 lung) | TGI (SW-620 colon) | TGI (OVCAR-8 ovarian) | TGI (U251 CNS) | TGI (SN12C renal) | TGI (SNB-19 CNS) | TGI (RXF 393 renal) | TGI (SR leukemia) | TGI (T-47D breast) | TGI (SK-MEL-2 melanoma) | GI50 (RXF 393 renal) | GI50 (SK-MEL-2 melanoma) | GI50 (NCI-H522 lung) | GI50 (SW-620 colon) | GI50 (OVCAR-8 ovarian) | GI50 (U251 CNS) | GI50 (SN12C renal) | GI50 (T-47D breast) | GI50 (SNB-19 CNS) |
| --- | --- | --- | --- | --- | --- | --- | --- | --- | --- | --- | --- | --- | --- | --- | --- | --- | --- | --- | --- |
| CC1=NN(c2nc(N)nc(-c3sccc3N)n2)C(C)(C)C1 | > 100 µM | > 100 µM | > 100 µM | > 100 µM | > 100 µM | > 100 µM | – | – | – | – | – | – | – | – | – | – | – | – | – |
| COc1ccccc1CN=C1Nc2ccncc2S(=O)(=O)N1c1ccccc1 | > 100 µM | > 100 µM | > 100 µM | > 100 µM | > 100 µM | > 100 µM | > 100 µM | > 100 µM | – | – | – | – | – | – | – | – | – | – | – |
| Cc1cc(C)c2c(=O)cc(-c3cccc(F)c3)[nH]c2n1 | 0.141 µM | – | > 100 µM | > 84.1 µM | 20.3 µM | > 100 µM | – | 0.122 µM | > 100 µM | – | – | – | – | – | – | – | – | – | – |
| O=C(OCCN=c1c2ccccc2ccc2ccccc12)c1ccccc1 | – | > 100 µM | > 100 µM | > 100 µM | > 100 µM | > 100 µM | > 100 µM | > 100 µM | – | > 100 µM | – | – | – | – | – | – | – | – | – |
| S=C(N/N=C\C(=N/NC(=S)N1CCCCC1)c1ccccc1)N1CCCCC1 | 3.77 µM | 3.83 µM | – | 3.56 µM | 3.51 µM | 3.84 µM | 3.33 µM | – | 6.72 µM | – | – | – | – | – | – | – | – | – | – |
| O=P(O)(O)c1ccccc1Oc1ccccc1 | > 100 µM | > 100 µM | > 100 µM | > 100 µM | > 100 µM | > 100 µM | > 100 µM | – | – | > 100 µM | – | – | – | – | – | – | – | – | – |
| NCCCCNCCCNC(=O)c1nc(-c2nc(CCN)sc2Cl)sc1Cl | 55.9 µM | > 100 µM | > 100 µM | > 100 µM | > 100 µM | > 100 µM | 37.1 µM | > 100 µM | – | – | – | – | – | – | – | – | – | – | – |
| COC(=O)[C@@H]1CCCCC[C@H]2C(CO)=C(C)C(=O)C12 (stereo partly specified) | > 100 µM | > 100 µM | > 100 µM | > 100 µM | > 100 µM | > 100 µM | > 100 µM | > 100 µM | – | > 100 µM | – | – | – | – | – | – | – | – | – |
| COc1ccc(C2C3=C(COC3=O)Oc3cc4c(cc32)OCO4)c(OC)c1 (stereo unspecified) | – | > 100 µM | > 100 µM | > 100 µM | > 100 µM | > 100 µM | 51 µM | > 100 µM | – | – | – | – | – | – | – | – | – | – | – |
| C=C1N(C=O)C(C)(C)N(O)C1(C)C | – | > 100 µM | > 100 µM | > 100 µM | > 100 µM | > 100 µM | > 100 µM | – | > 100 µM | > 100 µM | – | – | – | – | – | – | – | – | – |
| CCOc1ccc(Nc2nc(N)nc(N)c2N)cc1 | 52.1 µM | > 100 µM | > 100 µM | 66 µM | – | 93.4 µM | – | 59.3 µM | 54.3 µM | > 100 µM | – | – | – | – | – | – | – | – | – |
| N#C/C(C(=O)Nc1ccc(Cl)cc1)=C(/N)N1CCCC1 | – | > 100 µM | > 100 µM | > 100 µM | > 100 µM | > 100 µM | – | > 100 µM | > 100 µM | > 100 µM | – | – | – | – | – | – | – | – | – |
| CC[C@H](Nc1nc(C)nc(N)c1C#N)c1nc2cccc(NCc3ccc(C(=O)NO)cc3)c2c(=O)n1-c1ccccc1 | 3.65 µM | 4.47 µM | 3.71 µM | 2.97 µM | 3.92 µM | 3.97 µM | 2.18 µM | – | 7.06 µM | 5.51 µM | 0.866 µM | 2.07 µM | 1.54 µM | 1.74 µM | 1.55 µM | 1.48 µM | 1.65 µM | 1.86 µM | 1.63 µM |
| CCOC(=O)c1s/c(=N\Nc2nc3ccccc3cc2C2OCCO2)n(Cc2ccccc2)c1C | > 100 µM | > 100 µM | > 100 µM | > 100 µM | > 100 µM | > 100 µM | > 100 µM | > 100 µM | – | > 100 µM | – | – | – | – | – | – | – | – | – |
| COc1ccc(-c2c3c(n(C4OC(CO)C(O)C(O)C4O)c(=S)c2C#N)CCC3)cc1 (stereo unspecified) | – | > 100 µM | – | > 100 µM | > 100 µM | > 100 µM | 63.6 µM | > 100 µM | > 100 µM | > 100 µM | – | – | – | – | – | – | – | – | – |
| C=C1OC(c2ccccc2NC)=NC12CCCCC2 | > 100 µM | > 100 µM | > 100 µM | > 100 µM | > 100 µM | > 100 µM | > 100 µM | – | > 100 µM | – | – | – | – | – | – | – | – | – | – |
| O=c1nc2c(c(-c3ccc(Br)cc3)[nH]1)COC/C2=C\c1ccc(Br)cc1 | > 50 µM | > 50 µM | > 50 µM | > 50 µM | > 50 µM | > 50 µM | > 50 µM | – | > 50 µM | > 50 µM | – | – | – | – | – | – | – | – | – |
| CCC1=C(C(C)=O)[C@@H]2CCCCC[C@@H](C(=O)OC)C2C1=O (stereo partly specified) | > 100 µM | > 100 µM | > 100 µM | > 100 µM | > 100 µM | > 100 µM | > 100 µM | > 100 µM | – | > 100 µM | – | – | – | – | – | – | – | – | – |
| Cc1ccc2c(c1)-c1c(C#N)c(N)nc(-c3ccc(Cl)cc3)c1CCS2(=O)=O | > 23.1 µM | > 100 µM | > 100 µM | > 100 µM | > 100 µM | > 100 µM | – | 6.18 µM | > 100 µM | > 100 µM | – | – | – | – | – | – | – | – | – |
| OCCOCn1nncc1Cn1ncc2c(SCc3ccccc3)ncnc21 | > 100 µM | > 100 µM | > 100 µM | > 100 µM | > 100 µM | > 100 µM | > 100 µM | – | > 100 µM | > 100 µM | – | – | – | – | – | – | – | – | – |
| CCc1c(CNc2ccc(C(=O)NC(CC(=O)O)C(=O)O)cc2)ccc2nc(N)nc(N)c12 (stereo unspecified) | > 1000 µM | > 1000 µM | > 1000 µM | > 1000 µM | > 1000 µM | > 1000 µM | > 1000 µM | > 1000 µM | – | > 1000 µM | > 1000 µM | > 1000 µM | 1.09 µM | – | – | 372 µM | – | – | 0.188 µM |
| CC(C)N1CC2CC(CN(C(=O)c3ccccc3)C2)C1 | > 100 µM | > 100 µM | > 100 µM | > 100 µM | > 100 µM | > 100 µM | > 100 µM | – | – | > 100 µM | – | – | – | – | – | – | – | – | – |
| COc1ccc(/C=c2\s/c(=C3/SC(=S)N(c4ccccc4)C3=O)n(-c3ccccc3)c2=O)cc1 | > 100 µM | > 100 µM | > 100 µM | > 100 µM | > 100 µM | > 100 µM | – | 31.8 µM | > 100 µM | – | – | – | – | – | – | – | – | – | – |
